In ChEMBL document CHEMBL4177696, “Identification of a diverse synthetic abietane diterpenoid library and insight into the structure-activity relationships for antibacterial activity” (Bioorg Med Chem Lett, 2017):
Values after ≈ are worked out from the molar mass of the structure shown.

Key:
Format in all cases: functional
Escherichia coli = assay: Antibacterial activity against Escherichia coli measured after 24 hrs
Pseudomonas fluorescens = assay: Antibacterial activity against Pseudomonas fluorescens measured after 24 hrs
Staphylococcus aureus = assay: Antibacterial activity against Staphylococcus aureus measured after 24 hrs
Bacillus subtilis = assay: Antibacterial activity against Bacillus subtilis measured after 24 hrs

SMILES	MIC (Escherichia coli) [µg/mL]	MIC (Pseudomonas fluorescens) [µg/mL]	MIC (Staphylococcus aureus) [µg/mL]	MIC (Bacillus subtilis) [µg/mL]
COc1c(C(C)C)ccc2c1CC[C@H]1C(=O)CCC[C@]21CO[N+](=O)[O-]	50 (≈ 144 µM)	75 (≈ 216 µM)	50 (≈ 144 µM)	25 (≈ 72 µM)
COC(=O)[C@]1(C)CCC[C@]2(C)c3ccc(C(C)C)c(NC(=O)Cn4cc(-c5cccc([N+](=O)[O-])c5)nn4)c3CC[C@@H]12	75 (≈ 134 µM)	50 (≈ 89.3 µM)	25 (≈ 44.7 µM)	50 (≈ 89.3 µM)
COC(=O)[C@]1(C)CCC[C@]2(C)c3ccc(C(C)C)c(NC(=O)Cn4cc(-c5ccc(C#N)cc5)nn4)c3CC[C@@H]12	12.5 (≈ 23.2 µM)	25 (≈ 46.3 µM)	25 (≈ 46.3 µM)	12.5 (≈ 23.2 µM)
C[C@]12CC=C3C(=O)OC[C@@H]3[C@@H]1CCc1ccccc12	0.8 (≈ 3.15 µM)	1.6 (≈ 6.29 µM)	50 (≈ 197 µM)	25 (≈ 98.3 µM)
CCCCCOc1ccc(-c2cn(CC(=O)Nc3c(C(C)C)ccc4c3CC[C@H]3[C@](C)(C(=O)OC)CCC[C@]43C)nn2)cc1	75 (≈ 125 µM)	75 (≈ 125 µM)	100 (≈ 166 µM)	75 (≈ 125 µM)
C=C1[C@H](O)CC[C@]2(C)c3ccc(C(C)C)c(OC)c3CC[C@@H]12	100 (≈ 333 µM)	100 (≈ 333 µM)	100 (≈ 333 µM)	100 (≈ 333 µM)
CC(C)(C)C(=O)OC[C@H]1[C@H](O)CC[C@]2(C)c3ccccc3CC[C@@H]12	25 (≈ 75.7 µM)	25 (≈ 75.7 µM)	25 (≈ 75.7 µM)	50 (≈ 151 µM)
COC(=O)[C@]1(C)CCC[C@]2(C)c3ccc(C(C)C)c(NC(=O)Cn4cc(CBr)nn4)c3CC[C@@H]12	75 (≈ 141 µM)	25 (≈ 47 µM)	50 (≈ 94.1 µM)	50 (≈ 94.1 µM)
COC(=O)[C@]1(C)CCC[C@]2(C)c3ccc(C(C)C)cc3CC[C@@H]12 [METHYL DEHYDROABIETATE]	100 (≈ 318 µM)	100 (≈ 318 µM)	75 (≈ 238 µM)	100 (≈ 318 µM)
COC(=O)[C@]1(C)CCC[C@]2(C)c3ccc(C(C)C)c(NC(=O)Cn4cc(-c5cccc(F)c5)nn4)c3CC[C@@H]12	25 (≈ 46.9 µM)	12.5 (≈ 23.5 µM)	12.5 (≈ 23.5 µM)	6.3 (≈ 11.8 µM)
COC(=O)c1nnn(CC(=O)Nc2c(C(C)C)ccc3c2CC[C@H]2[C@](C)(C(=O)OC)CCC[C@]32C)c1C(=O)OC	25 (≈ 45.1 µM)	50 (≈ 90.1 µM)	25 (≈ 45.1 µM)	75 (≈ 135 µM)
COC(=O)[C@]1(C)CCC[C@]2(C)c3ccc(C(C)C)c(NC(=O)Cn4cc(CCC#N)nn4)c3CC[C@@H]12	50 (≈ 102 µM)	50 (≈ 102 µM)	50 (≈ 102 µM)	75 (≈ 153 µM)
COC(=O)[C@]1(C)CCC[C@]2(C)c3ccc(C(C)C)c(NC(=O)Cn4cc(-c5cccc(OC)c5)nn4)c3CC[C@@H]12	75 (≈ 138 µM)	50 (≈ 91.8 µM)	50 (≈ 91.8 µM)	75 (≈ 138 µM)
COc1cccc2c1CC[C@H]1C3=C(CC[C@]21C)C(=O)OC3	100 (≈ 352 µM)	100 (≈ 352 µM)	100 (≈ 352 µM)	100 (≈ 352 µM)
COc1c(C(C)C)ccc2c1CC[C@@]1(O)C3=C(CC[C@]21C)C(=O)OC3	100 (≈ 292 µM)	100 (≈ 292 µM)	100 (≈ 292 µM)	100 (≈ 292 µM)
COC(=O)[C@]1(C)CCC[C@]2(C)c3ccc(C(C)C)c(NC(=O)Cn4cc(-c5ccccn5)nn4)c3CC[C@@H]12	12.5 (≈ 24.2 µM)	12.5 (≈ 24.2 µM)	25 (≈ 48.5 µM)	12.5 (≈ 24.2 µM)
COC(=O)[C@]1(C)CCC[C@]2(C)c3ccc(C(C)C)c(NC(=O)Cn4cc(CNC(=O)OC(C)(C)C)nn4)c3CC[C@@H]12	100 (≈ 176 µM)	25 (≈ 44 µM)	75 (≈ 132 µM)	50 (≈ 88.1 µM)
COC(=O)[C@]1(C)CCC[C@]2(C)c3ccc(C(C)C)c(NC(=O)Cn4cc(-c5ccc(C(F)(F)F)cc5)nn4)c3CC[C@@H]12	12.5 (≈ 21.5 µM)	25 (≈ 42.9 µM)	25 (≈ 42.9 µM)	12.5 (≈ 21.5 µM)
COc1c(C(C)C)ccc2c1CC[C@H]1[C@H]3COC(=O)[C@@]3(O)CC[C@]21C	100 (≈ 290 µM)	100 (≈ 290 µM)	75 (≈ 218 µM)	100 (≈ 290 µM)
CCn1cc(C(=O)O)c(=O)c2cc(F)c(N3CCNCC3)cc21 [NORFLOXACIN]	3.1 (≈ 9.71 µM)	1.6 (≈ 5.01 µM)	1.6 (≈ 5.01 µM)	1.6 (≈ 5.01 µM)

SMILES	MIC (Escherichia coli) [µg/mL]	MIC (Pseudomonas fluorescens) [µg/mL]	MIC (Staphylococcus aureus) [µg/mL]	MIC (Bacillus subtilis) [µg/mL]
C[C@]12CCC3=C(COC3=O)[C@@H]1CCc1ccccc12	100 (≈ 393 µM)	75 (≈ 295 µM)	100 (≈ 393 µM)	75 (≈ 295 µM)
COc1c(C(C)C)ccc2c1CC[C@H]1C(=O)CCC[C@]21C	75 (≈ 262 µM)	100 (≈ 349 µM)	75 (≈ 262 µM)	100 (≈ 349 µM)
COC(=O)[C@]1(C)CCC[C@]2(C)c3ccc(C(C)C)c(N)c3CC[C@@H]12	50 (≈ 152 µM)	50 (≈ 152 µM)	25 (≈ 75.9 µM)	50 (≈ 152 µM)
COC(=O)[C@]1(C)CCC[C@]2(C)c3ccc(C(C)C)c(NC(=O)Cn4cc(-c5ccccc5F)nn4)c3CC[C@@H]12	25 (≈ 46.9 µM)	12.5 (≈ 23.5 µM)	25 (≈ 46.9 µM)	50 (≈ 93.9 µM)
COC(=O)[C@]1(C)CCC[C@]2(C)c3ccc(C(C)C)c(NC(=O)Cn4cc(Cc5ccccc5)nn4)c3CC[C@@H]12	75 (≈ 142 µM)	50 (≈ 94.6 µM)	50 (≈ 94.6 µM)	50 (≈ 94.6 µM)
CC(C)C1=CC2=CC[C@@H]3[C@](C)(CCC[C@@]3(C)C(=O)O)[C@H]2CC1 [ABIETIC ACID]	50 (≈ 165 µM)	25 (≈ 82.7 µM)	25 (≈ 82.7 µM)	50 (≈ 165 µM)
COc1c(C(C)C)ccc2c1CC[C@H]1C(=O)C(=C(SC)SC)CC[C@]21CO	3.1 (≈ 7.62 µM)	6.3 (≈ 15.5 µM)	25 (≈ 61.5 µM)	12.5 (≈ 30.7 µM)
COC(=O)[C@]1(C)CCC[C@]2(C)c3ccc(C(C)C)c(NC(=O)Cn4cc(COc5ccccc5)nn4)c3CC[C@@H]12	25 (≈ 45.9 µM)	75 (≈ 138 µM)	50 (≈ 91.8 µM)	12.5 (≈ 22.9 µM)
COc1c(C(C)C)ccc2c1CC[C@H]1C3=C(CC[C@]21C)C(=O)OC3	100 (≈ 306 µM)	100 (≈ 306 µM)	100 (≈ 306 µM)	100 (≈ 306 µM)
COC(=O)[C@]1(C)CCC[C@]2(C)c3ccc(C(C)C)c(NC(=O)Cn4cc(-c5ccc(F)cc5)nn4)c3CC[C@@H]12	50 (≈ 93.9 µM)	50 (≈ 93.9 µM)	50 (≈ 93.9 µM)	25 (≈ 46.9 µM)
COc1c(C(C)C)ccc2c1CC=C1C3=C(CCC12C)C(=O)OC3 (single isomer, unassigned)	75 (≈ 231 µM)	100 (≈ 308 µM)	75 (≈ 231 µM)	100 (≈ 308 µM)
CCOCOC[C@]12CCC3=C(COC3=O)[C@@H]1CCc1c2ccc(C(C)C)c1OC	100 (≈ 250 µM)	100 (≈ 250 µM)	100 (≈ 250 µM)	100 (≈ 250 µM)
CC(C)(C)[Si](C)(C)O[C@@H]1CC[C@]2(C)c3ccccc3CC[C@H]2[C@H]1CO	100 (≈ 277 µM)	75 (≈ 208 µM)	100 (≈ 277 µM)	75 (≈ 208 µM)
COC(=O)C1=C[C@@H]2CCc3c(ccc(C(C)C)c3OC)[C@@]2(C)CC1	75 (≈ 228 µM)	25 (≈ 76.1 µM)	50 (≈ 152 µM)	25 (≈ 76.1 µM)
COC(=O)c1ccc(-c2cn(CC(=O)Nc3c(C(C)C)ccc4c3CC[C@H]3[C@](C)(C(=O)OC)CCC[C@]43C)nn2)cc1	6.3 (≈ 11 µM)	25 (≈ 43.7 µM)	12.5 (≈ 21.8 µM)	12.5 (≈ 21.8 µM)
COC(=O)[C@]1(C)CCC[C@]2(C)c3ccc(C(C)C)c(NC(=O)Cn4cc(C(O)c5ccccc5)nn4)c3CC[C@@H]12 (stereo partly specified)	50 (≈ 91.8 µM)	75 (≈ 138 µM)	25 (≈ 45.9 µM)	75 (≈ 138 µM)
COC(=O)[C@]1(C)CCC[C@]2(C)c3ccc(C(C)C)c(NC(=O)Cn4cc(-c5cc(Cl)cc(Cl)c5)nn4)c3CC[C@@H]12	25 (≈ 42.8 µM)	50 (≈ 85.7 µM)	25 (≈ 42.8 µM)	25 (≈ 42.8 µM)
C=C1[C@H](O[Si](C)(C)C(C)(C)C)CC[C@]2(C)c3ccccc3CC[C@@H]12	75 (≈ 219 µM)	75 (≈ 219 µM)	100 (≈ 292 µM)	100 (≈ 292 µM)
COc1c(C(C)C)ccc2c1CC[C@H]1C3=C(CC[C@]21CO)C(=O)OC3	50 (≈ 146 µM)	75 (≈ 219 µM)	50 (≈ 146 µM)	75 (≈ 219 µM)
